Several values for one entry are separate records, joined by “and”; a condition that tells them apart may be missing. Identical values can stand only once. Toxic doses and inconclusive results are not listed. How the source made its calls: active means survival T/C of 150% or more; inactive means T/C below 125% in these data.
System: B6C3F1 mice, Lewis lung carcinoma iv, survival T/C
Assay: NCI In Vivo Anticancer Drug Screen. Data for tumor model Lewis Lung Carcinoma (intravenous) in B6C3F1 mice
Conditions: endpoint: median survival time, schedule: Q01DX009 (ip), higher = longer survival
How it was run: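 Antitumor activity is assessed in tumor-bearing mice by comparing survival after compound treatment against vehicle-treated controls, reported as a T/C ratio.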

[1] = dose: 25.0 mg/kg/injection, vehicle: saline
[2] = dose: 50.0 mg/kg/injection, vehicle: saline
[3] = dose: 100.0 mg/kg/injection, vehicle: saline
[4] = dose: 400.0 mg/kg/injection, vehicle: saline

Measured: T/C

O=c1ncccn1[C@@H]1O[C@H](CO)[C@H](O)C1O (some centres not stated)
inactive: [1] 92 % of control and 96 % of control | [2] 88 % of control and 101 % of control | [3] 105 % of control | dose: 200.0 mg/kg/injection, vehicle: saline 108 % of control and 119 % of control | [4] 97 % of control and 116 % of control

CSc1ncnc2c1ncn2C1OC(CO)C(O)C1O (configuration not stated)
inactive: dose: 3.12 mg/kg/injection, vehicle: saline + alcohol 96 % of control | dose: 6.25 mg/kg/injection, vehicle: saline + alcohol 97 % of control | dose: 12.5 mg/kg/injection, vehicle: saline + alcohol 100 % of control | dose: 25.0 mg/kg/injection, vehicle: saline + alcohol 105 % of control | dose: 50.0 mg/kg/injection, vehicle: saline + alcohol 117 % of control

C/C=C1\C[C@@H]2C(OC)Nc3cc(O)c(OC)cc3C(=O)N2C1 (some centres not stated)
inactive: dose: 0.03 mg/kg/injection, vehicle: saline 100 % of control | dose: 0.03 mg/kg/injection, vehicle: suspension in saline 92 % of control | dose: 0.06 mg/kg/injection, vehicle: saline 110 % of control | dose: 0.06 mg/kg/injection, vehicle: suspension in saline 96 % of control | dose: 0.12 mg/kg/injection, vehicle: saline 101 % of control | dose: 0.12 mg/kg/injection, vehicle: suspension in saline 97 % of control | dose: 0.25 mg/kg/injection, vehicle: saline 108 % of control | dose: 0.25 mg/kg/injection, vehicle: suspension in saline 104 % of control | dose: 0.5 mg/kg/injection, vehicle: saline 104 % of control | dose: 0.5 mg/kg/injection, vehicle: suspension in saline 105 % of control

CC(=O)C1=C(O)C2(O)C(=O)c3c(c(C)c4ccc(C)c(O)c4c3O)CC2C(N)C1=O (configuration not stated)
inactive: dose: 3.75 mg/kg/injection, vehicle: saline + alcohol 95 % of control and 105 % of control | dose: 7.3 mg/kg/injection, vehicle: saline + alcohol 102 % of control | dose: 7.5 mg/kg/injection, vehicle: saline + alcohol 95 % of control | dose: 15.0 mg/kg/injection, vehicle: saline + alcohol 102 % of control and 107 % of control | dose: 30.0 mg/kg/injection, vehicle: saline + alcohol 98 % of control and 107 % of control | dose: 60.0 mg/kg/injection, vehicle: saline + alcohol 102 % of control and 110 % of control | dose: 120.0 mg/kg/injection, vehicle: saline + alcohol 112 % of control

Cc1cc(=NO)cc(C)n1O
inactive: dose: 25.0 mg/kg/injection, vehicle: distilled water + alcohol 105 % of control | dose: 50.0 mg/kg/injection, vehicle: distilled water + alcohol 95 % of control and 102 % of control | dose: 100.0 mg/kg/injection, vehicle: distilled water + alcohol 96 % of control and 102 % of control | dose: 200.0 mg/kg/injection, vehicle: distilled water + alcohol 97 % of control and 104 % of control | dose: 400.0 mg/kg/injection, vehicle: distilled water + alcohol 97 % of control and 102 % of control

Cc1nnc2ncccn12
inactive: dose: 12.5 mg/kg/injection, vehicle: saline 104 % of control | [1] 110 % of control | [2] 101 % of control | [3] 96 % of control | [4] 103 % of control

C=COC(=O)C(Cc1ccccc1)NC(=O)OCc1ccccc1 (configuration not stated)
inactive: dose: 25.0 mg/kg/injection, vehicle: saline with Tween-80 103 % of control | dose: 50.0 mg/kg/injection, vehicle: saline with Tween-80 112 % of control | dose: 100.0 mg/kg/injection, vehicle: saline with Tween-80 98 % of control | dose: 200.0 mg/kg/injection, vehicle: saline with Tween-80 105 % of control | dose: 400.0 mg/kg/injection, vehicle: saline with Tween-80 94 % of control
